Columns and labels:
Assay type in all cases: in vivo, human
subjects with MDD [1] = experiment: SHAPS total score (anhedonia), same study; settings: for SHAPS Total Score Change from Baseline LSMean Difference (SE) Treatment-Placebo: MMRM
From the text: To assess a potential effect on anhedonia, an anhedonia scale may be used. For example, the Snaith-Hamilton Pleasure Scale (SHAPS) analysis is a validated scale for the measurement of anhedonia. The SHAPS is a subject completed scale in which subjects score whether or not they experience pleasure in performing a list of activities or experiences. The SHAPS is a self-reported 14-item instrument, developed for the assessment of hedonic capacity. Subjects score whether they experience pleasure in performing a list of activities or experiences. Subjects can rate the answers as 1˜4 where 1 indicates “Definitely agree”, 2 indicates “Agree”, 3 indicates “Disagree” and 4 indicates “Definitely disagree”. The subject's item responses are summed to provide a total score ranging from 14 to 56. A higher total SHAPS score indicates higher levels of current anhedonia. Physician/clinical judgment can be used to assess anhedonia separately or in conjunction with an anhedonia scale.
In some embodiments, the patient has moderate anhedonia. In other embodiments, the patient has severe anhedonia. An assessment of moderate or severe anhedonia is typically determined physician/clinical judgment and/or by one or more tests that provide insight into whether a patient has anhedonia. For example, the severity of the anhedonia may be determined using the SHAPS method. In some embodiments, a patient with moderate or severe anhedonia is considered to have a high level of anhedonia. For example, a patient with a SHAPS score of 38 or greater is considered to have moderate to severe anhedonia that can be considered a high level of anhedonia. In some embodiments, a high level of anhedonia is reflected by a SHAPS score of at least about 40, about 42, about 44, about 46, about 48, about 50, about 52, about 54, about 56, […]. A patient with mild or no anhedonia would be considered to have a low level of anhedonia that is assessed by physician/clinical judgment and/or one or more tests. For example, a patient with a SHAPS score of less than 38 is considered to have low anhedonia. In certain embodiments, a patient with mild anhedonia may have a SHAPS score of 20 to less than 38, for example, a SHAPS score of 20 to about 36, about 22 to about 36, about 24 to about 36, about 26 to about 36, about 26 to about 34, about 26 to about 32, about 26 to about 30, about 26 to about 28, about 28 to about 36, about 28 to about 36, about 30, to about 36, about 32 to about 36, about 34 to about 36, about 20 to about 34, about 22 to about 34, about 24 to about 34, about 26 to about 32, about 26 to about 30, about 26 to about 28, about 28 to about 36, about 28 to about 34, about 28 to about 32, about 28 to about 30, about 30 to about 36, about 30 to about 34, about 30 to about 32, about 32 to about 36, about 32 to about 34, or about 34 to about 36. Typically, a SHAPS score of less than 20 can be considered to correspond to normal hedonic functioning, and for purposes of this disclosure, would fall into the low category of anhedonia, e.g., a SHAPS score of less than 38.
The secondary objectives are: • i. […] To investigate the effect of aticaprant versus placebo on depression related anhedonia as assessed by the SHAPS. • iv.

subjects with MDD [2] = experiment: Treatment-emergent adverse events, full safety analysis set
[3] = Body weight by treatment group
From the text: Treatment with crystalline Form I of aticaprant, crystalline Form II of aticaprant, crystalline Form III of aticaprant, or amorphous aticaprant as described herein has several advantages over the treatments in the art. […] As used herein, the term “weight gain” refers to an increase in the weight of patient, relative to the weight of the patient before taking crystalline Form I of aticaprant, crystalline Form II of aticaprant, crystalline Form III of aticaprant, or amorphous aticaprant or the weight of the patient that is assessed at the time of the initial administration of the crystalline Form I of aticaprant, crystalline Form II of aticaprant, crystalline Form III of aticaprant, or amorphous aticaprant. In certain embodiments, the patient may actually see a decrease in overall weight, relative to the weight of the patient before taking crystalline Form I of aticaprant, crystalline Form II of aticaprant, crystalline Form III of aticaprant, or amorphous aticaprant.
At the lead-in baseline timepoint, the mean weight for subjects in the placebo group was 76.17 kg compared to 78.66 in the aticaprant group. After 6 weeks in the double-blind treatment phase, the mean weight in the placebo group was 75.75 kg compared to 78.57 kg in the aticaprant group. […] This is unexpected because other adjunctive treatments for MDD result in a mean weight increase. See, Thase M, et al. J Clin Psych. 2015: 76 (9), 1224-1231; Thase, J Clin Psych. 2015, 76 (9): 1232-1240; El Khalili, Int J Neuropsychopharmacol. 2010, 13, 917-932; Marcus, J. Clin. Psychopharmacol. […] Nashville, Tenn, ACNP, 2008; Earley, American College of Neuropsychopharmacology, 2007, Annual Meeting Abstracts (Boca Raton, Fla, Dec. 9-13, 2007). Nashville, TN, ACNP, 2007). See, Table 65.

[4] = fITT Analysis Set, Treatment Week 5
[5] = number of subjects, eITT Analysis Set, Treatment Baseline, N 60
[6] = number of subjects, eITT Analysis Set, Treatment Week 6, N 59
[7] = number of subjects, fITT Analysis Set, Baseline/Day 22 (before treatment), N 83
[8] = number of subjects, fITT Analysis Set, Treatment Baseline, N 83
[9] = Treatment Period, Full Safety Analysis Set, aticaprant 10 mg (N = 85)

Cc1cc(C)cc(C2CCCN2Cc2ccc(Oc3ccc(C(N)=O)cc3F)cc2)c1 (stereo not shown) [aticaprant, 3-fluoro-4-4-2-(3,5-dimethylphenyl) pyrrolidin-1-yl-methylphenoxybenzamide]
SHAPS Total Score Change from Baseline LSMean Difference (SE) Treatment-Placebo (subjects with MDD [1]; eITT Analysis Set, Treatment Week 1): −0.8
SHAPS Total Score Change from Baseline LSMean Difference (SE) Treatment-Placebo (subjects with MDD [1]; eITT Analysis Set, Treatment Week 3): −1.4
SHAPS Total Score Change from Baseline LSMean Difference (SE) Treatment-Placebo (subjects with MDD [1]; eITT Analysis Set, Treatment Week 4): −1.4
SHAPS Total Score Change from Baseline LSMean Difference (SE) Treatment-Placebo (subjects with MDD [1]; eITT Analysis Set, Treatment Week 5): −0.5
SHAPS Total Score Change from Baseline LSMean Difference (SE) Treatment-Placebo (subjects with MDD [1]; eITT Analysis Set, Treatment Week 6): −0.7
SHAPS Total Score Effect Size (subjects with MDD [1]; eITT Analysis Set, Treatment Week 6, negative favors aticaprant): −0.07
SHAPS total score: mean change from treatment baseline (SD) (subjects with MDD [1]; eITT, Treatment Week 6): −4.6 (6.23)
SHAPS total score: observed effect size (subjects with MDD [1]; eITT, Treatment Week 6): 0.07
Frequency of Subjects: No Anhedonia (SHAPS Total Score < 20) (subjects with MDD [1]; fITT Analysis Set, Baseline/Day 22 (before treatment), N 83): 1.2%
Frequency of Subjects: No Anhedonia (SHAPS Total Score < 20) (subjects with MDD [1]; fITT Analysis Set, Treatment Baseline, N 83 (Table 64)): 1.2%
SHAPS Total Score Change from Baseline LSMean Difference (SE) Treatment-Placebo (subjects with MDD [1]; fITT Analysis Set, Treatment Week 1): −1.0 (0.72)
SHAPS Total Score Change from Baseline LSMean Difference (SE) Treatment-Placebo (subjects with MDD [1]; fITT Analysis Set, Treatment Week 3): −1.4 (0.73)
SHAPS Total Score Change from Baseline LSMean Difference (SE) Treatment-Placebo (subjects with MDD [1]; fITT Analysis Set, Treatment Week 4): −1.6 (0.73)
SHAPS Total Score Mean Change from Baseline (SD) (subjects with MDD [1]; [4]): −4.3 (5.70)
SHAPS Total Score Change from Baseline LSMean Difference (SE) Treatment-Placebo (subjects with MDD [1]; [4]): −0.8 (0.73)
SHAPS Total Score Change from Baseline LSMean Difference (SE) Treatment-Placebo (subjects with MDD [1]; fITT Analysis Set, Treatment Week 6): −0.8 (0.73)
Frequency of Subjects: High Level of Anhedonia (SHAPS Total Score >= 38) (subjects with MDD [1]; [5]): 26
Frequency of Subjects: Low Level of Anhedonia Score < 20) Total Score < 38) (subjects with MDD [1]; [5]): 34
Frequency of Subjects: No Anhedonia (SHAPS Total) (subjects with MDD [1]; [5]): 0
Frequency of Subjects: High Level of Anhedonia (SHAPS Total Score >= 38) (subjects with MDD [1]; [6]): 8
Frequency of Subjects: Low Level of Anhedonia Score < 20) Total Score < 38) (subjects with MDD [1]; [6]): 48
Frequency of Subjects: No Anhedonia (SHAPS Total) (subjects with MDD [1]; [6]): 3
Frequency of Subjects: Anhedonia (SHAPS Total Score >= 20) (subjects with MDD [1]; [7]): 82
Frequency of Subjects: No Anhedonia (SHAPS Total Score < 20) (subjects with MDD [1]; [7]): 1
Frequency of Subjects: High Level of Anhedonia (SHAPS Total Score >= 38) (subjects with MDD [1]; [8]): 30
Frequency of Subjects: Low Level of Anhedonia (20 >= SHAPS Total Score < 38) (subjects with MDD [1]; [8]): 52
Frequency of Subjects: No Anhedonia (SHAPS Total Score < 20) (subjects with MDD [1]; number of subjects, fITT Analysis Set, Treatment Baseline, N 83 (Table 64)): 1
Subjects with 1 or more serious TEAE (subjects with MDD [2]; [9]): 0 n
Subjects with TEAE leading to death (subjects with MDD [2]; [9]): 0 n
TEAE of Special Interest: Abdominal Pain Upper (subjects with MDD [2]; [9]): 0 n
patients who experienced acute cholecystitis (subjects with MDD [2]; treatment period): 0 patients
subjects who experienced TEAEs of special interest (subjects with MDD [2]; treatment period, 13/85): 15.3%
subjects who discontinued due to treatment-emergent adverse events (subjects with MDD [2]; treatment period, due to diarrhea, nausea, vomiting and headache): 1 subject
subjects with TEAE diarrhea (subjects with MDD [2]; treatment period, full safety analysis set, 7/85): 8.2%
subjects with TEAE headache (subjects with MDD [2]; treatment period, full safety analysis set, 10/85): 11.8%
subjects who experienced at least one TEAE (subjects with MDD [2]; treatment period, full safety analysis set, 40/85): 47.1%
Mean weight, mean (SE) ([3]; Lead-in Baseline, n = 85): 78.66 (1.65) kg
Mean weight, mean (SE) ([3]; Screening, n = 85): 78.42 (1.65) kg
Mean weight, mean (SE) ([3]; Withdrawal Baseline (after 6 weeks double-blind treatment), n = 85): 78.57 (1.71) kg
Mean weight Relative % Change ([3]; Withdrawal vs Lead-in, n = 85): −0.11%
mean weight ([3]; after 6 weeks in the double-blind treatment phase, lead-in baseline 78.66): 78.57 kg
weight over the 6-week double blind treatment period (in words) ([3]; in vivo): remained relatively stable
Mean weight Absolute Change (Withdrawal-Lead-in) ([3]; n = 85): -0.09 kg

Source: US12171743B2, “Forms of aticaprant” (Janssen Pharmaceuticals, Inc., priority 2022, dated 2024)
